# “And” between values parts separate entries of the source, which are not always exact repeats. Identical values can stand only once.
# Assays:
# duplex supF DNA = experiment: UVA-induced covalent bond formation to duplex supF DNA; assay type: binding, E. coli; conditions: following UVA irradiation
# 250 bp supF PCR fragment = experiment: Hinf I restriction enzyme protection assay, PCR amplified supF target; assay type: binding, E. coli; conditions: 100-fold molar excess of oligonucleotide
# Source text: FIG. 4 is a schematic representation showing the basis of a restriction enzyme protection assay to detect site-specific triplex formation within the supF gene. The formation of triplex DNA by psoralen-AG10 at its targeted site (bp 167–176 of the supF gene) overlaps with the Hinf I restriction site at bp 164–168 (indicated in the diagram by the box around the appropriate base pairs). Digestion of the unprotected 250 bp supF PCR fragment with Hinf I is expected to yield three fragments of sizes 150, 65, and 35 bp. In contrast, with the Hinf I site at bp 164–168 blocked by triplex formation at bp 167–176, fragments of sizes 150 and 100 bp are predicted.
# The 250 bp supF target (70 nM) was incubated with a 100-fold molar excess of psoralen-AG10 as described for the binding assay. Irradiation of samples was performed at a dose of 1.8 J/cm^2. A radiometer was used to measure the lamp output (typical UVA irradiance of 5–7 mW/cm^2 at 320–400 nm). Following the binding and irradiation steps, samples were digested for 2 hours at 37° C. with Hinf I. Loading buffer was added and samples were heated 10 minutes at 55° C., and run for 1 hour on a 4.5% Nusieve gel in TAE buffer at 80 v (10 v/cm).
# Site-specific formation of triplex DNA. […] This is diagrammed in FIG. 4. […] Analysis by agarose gel electrophoresis of Hinf I digestions of the 250 bp supF gene PCR fragment under various conditions was done. The supF fragment was incubated with or without psoralen-AG10 at a 100-fold molar excess, treated by 1.8 J/cm^2 of UVA irradiation, and then subjected to Hinf I digestion. Digestion of the unprotected 250 bp supF PCR fragment with Hinf I yielded three fragments of sizes 150, 65, and 35 in contrast with the uncut fragment of 250 bp. […] In the absence of psoralen-AG10, UVA light had no effect on Hinf I digestion.
# [1] = tested on: supF gene within the pSP189 SV40 vector; experiment: SV40 mutagenesis: vector DNA passaged in COS-7 cells; assay type: cell-based, monkey
# Experimental: FIG. 3 is a schematic representation of the strategy for targeted mutagenesis of SV40 DNA. The 10 base triplex-forming oligonucleotide, psoralen-AG10 (4′hydroxymethyl-4,5′,8-trimethylpsoralen-5′[…]3′) (SEQ ID NO:1), is shown directly above its targeted sequence in the supF gene (base pairs 167–176), contained within the SV40 vector, pSP189. Psoralen-AG10 is incubated with the SV40 vector DNA to allow site-specific triplex formation. Photoactivation of the psoralen by irradiation with long wave ultraviolet light (320–400 nm) is designed to generate an adduct at the targeted base pair (167), as indicated by the arrow. The oligo-plasmid complex is then transfected into monkey COS-7 cells and allowed to replicate for 48 hours. Following purification of the vector DNA by the Hirt lysate procedure (Hirt et al., J. Mol. Biol. 26:365–369 (1967)), the DNA is used to transform E. coli SY204 lacZ125 (Am).
# SV40 mutagenesis. The SV40 vector DNA (pSP189) at 80 nM was incubated with psoralen-AG10 or psoralen-GA10 (ranging from 2 to 1000-fold molar excess) and irradiated as described above. The oligonucleotide-plasmid complex was then transfected into monkey COS-7 cells (ATCC #1651-CRL) using cationic liposomes (DOTAP, Boehringer Manheim, Indianapolis, Ind.) at a final concentration of 5 μg/ml in the culture dish. The DNA/oligo/liposome mixture was added dropwise to the cell culture dish with swirling. The following day, the media containing the liposome mixture was replaced by fresh media. Following 48 hours to allow repair and replication, SV40 vector DNA was harvested from the COS cells by the Hirt lysate procedure. Genetic analysis of the supF genes in the SV40 vector was carried out by transformation of E. coli SY204 [lacZ125(Am)] to ampicillin resistance by electroporation using 12–150 ng of Dpn I digested Hirt lysate DNA and a Bio-Rad Gene Pulser apparatus equipped with a Pulse Controller (Bio-Rad, Richmond, Calif.). Mutants were identified by growth in the presence of 65 μg/ml IPTG and 80 μg/ml X-Gal, as described by (Glazer et al., Mol. Cell Biol. 7:218–224 (1987)). These transformants were counted and the mutants (white colonies) were streaked for single colonies.
# In this vector system, the SV40 DNA, after appropriate treatment, is introduced into monkey COS cells where repair and replication can occur, producing mutations indicative of mammalian processing of DNA damage. The small, circular vector DNA is recovered from the cells by biochemical separation from the chromosomal DNA (Hirt lysate, Hirt et al., J. Mol. Biol. 26:365–369 (1967)), and it is used to transform E. coli carrying the lacZ (amber) mutation to allow analysis of supF gene function by scoring colonies for β-galactosidase activity (produced via suppression of the amber mutation in lacZ) in the presence of the chromogenic substrate, X-gal. Vectors with wild type supF genes yield blue colonies; those with mutations in supF produce white ones. In order to eliminate misleading data that might arise from viral DNA that was not replicated or repaired in the mammalian cells, the viral DNA is digested before bacterial transformation with the enzyme Dpn I which will restrict DNA that has not been methylated by the mammalian pattern at its recognition site.
# The design of the initial experiments to target mutations to SV40 DNA is illustrated in FIG. 3. A 10 base pair region of the supF gene (bp 167–176) was identified as a site amenable to triplex formation because of the homopurine/homopyrimidine run there. Since this run was G-rich, the purine motif for triplex formation was selected (Beal and Dervan, Science 251:1360–1363 (1991)), and an oligonucleotide, 5′[…]3′ (SEQ ID NO:2) (AG10) was synthesized based on this motif. A psoralen derivative, 4′-hydroxymethyl-4,5′,8-trimethylpsoralen, was attached to the oligonucleotide by a phosphodiester linkage at the 5′ adenine via a two carbon linker arm, with the goal of directing mutations to base pair 167.
# [2] = supF fragment 70 nM, UVA 1.8 J/cm^2
# [3] = ratio of oligo to vector 2:1, UVA 1.8 J/cm^2
# [4] = ratio of oligo to vector 5:1, UVA 1.8 J/cm^2
# [5] = ratio of oligo to vector 10:1, UVA 1.8 J/cm^2
# [6] = ratio of oligo to vector 1000:1, no UVA
substance,measurement,setting,value
"pso-^5′GGGGGAAGGA^3′ (DNA NGGGGGAAGGA; psoralen conjugated at 5' end, further chemistry not given here) [pso-GA10, reference compound]",Covalent bond to labeled duplex supF DNA,duplex supF DNA,did not
same,Protection from Hinf I digestion,250 bp supF PCR fragment; [2],no protection from Hinf I cutting
same,supF mutagenesis relative to background,"[1]; lower ratios of oligo to vector (below 1000:1), plus UVA",no significant mutagenesis above the background frequency
same,% mutants (supF gene),[1]; [3],0.07%
same,% mutants (supF gene),[1]; [4],0.13%
same,% mutants (supF gene),[1]; [5],0.06%
same,% mutants (supF gene),"[1]; ratio of oligo to vector 1000:1, UVA 1.8 J/cm^2, listed as psoralen-GA10",0.5% and 0.63%
same,% mutants (supF gene),[1]; [6],≦0.07%
same,Mutants per total colonies,[1]; [6],0/1500
"4′-hydroxymethyl-4,5′,8-trimethylpsoralen-^5′AGGAAGGGGG^3′ (DNA NAGGAAGGGGG; 4'-hydroxymethyl-4,5',8-trimethylpsoralen conjugated at 5' end, further chemistry not given here) [pso-AG10]",Covalent bond to labeled duplex supF DNA,duplex supF DNA,formed a covalent bond to labeled duplex supF DNA following UVA irradiation
same,Protection from Hinf I digestion,250 bp supF PCR fragment; no UVA,not sufficient to prevent Hinf I digestion
same,Protection from Hinf I digestion,250 bp supF PCR fragment; [2],protection of the Hinf I site at bp 164–168 but not the one at bp 129–133
same,Fold higher targeted mutagenesis in SV40 than in bacteriophage lambda grown in E. coli,[1]; 6% to 7% versus 0.23%,30 fold
same,% mutants (supF gene),[1]; [3],2.5%
same,% mutants (supF gene),[1]; [4],4.3%
same,% mutants (supF gene),[1]; [5],6.4%
same,% mutants (supF gene),"[1]; ratio of oligo to vector 1000:1, UVA 1.8 J/cm^2",7.3%
same,% mutants (supF gene),[1]; [6],≦0.06%
same,Mutants per total colonies,[1]; [6],0/1700

# From US7078389B2, “Chemically modified oligonucleotide for site-directed mutagenesis” (priority 1993, dated 2006)
